From patent publication US11072614B2, “Polymorphs of sepiapterin and salts thereof” (PTC Therapeutics MP, Inc., priority 2016, dated 2021)

Experiments:
Format in all cases: physicochemical
[1] = Storage stability of polymorphs, HPLC sepiapterin and impurity profile (Example 12); parameters: Impurity RRT 1.06 / Impurity RRT 1.08 / Impurity RRT 1.17 / Impurity RRT 1.21 / Impurity RRT 1.25 / Impurity RRT 0.62 / Impurity RRT 0.89 / Impurity RRT 0.95 / Impurity RRT 0.60: unit not given here
Experimental: Samples of sepiapterin free base polymorph Forms D, F, and A were stored at room temperature (RT), 35° C., and 50° C. The samples were analyzed by HPLC at 1 week and 4 week intervals. The HPLC parameters were as follows: [table]

[2] = Physical form stability to grinding and sieving (XRD before and after)
Experimental: A sample of sepiapterin free base was obtained commercially. […] The sepiapterin sample contained particles with an average particle size over 100 μm. The XRD pattern was determined before and after grinding to reduce the particle size such that it passes through a 140 mesh screen. This polymorph of sepiapterin free base is referred to as Form A herein.

[3] = Storage stability study of solid forms, HPLC purity (Example 11); conditions: for % of Initial / Purity (area %): 10% RH
Experimental: (§1) Form A and F samples were placed in chambers with silica gel to remove water (the relative humidity was measured to be ˜10% RH) at different temperatures. Form D samples were placed in chambers with water (relative humidity was estimated to be ˜100% RH) at different temperatures.
(§2) The HPLC purities and XRD patterns were obtained for each of Form A/F/D samples stored at various temperatures.

[4] = Storage stability study of solid forms, form change by XRD (Example 11); conditions: 10% RH
Experimental: For X-ray powder diffraction analysis, a PANalytical Empyrean X-ray powder diffractometer was used. The parameters are as follows:
as §1, §2

[5] = 35° C./10% RH, 1 w, listed as Polymorph A
[6] = 35° C./10% RH, 4 w, listed as Polymorph A
[7] = 50° C./10% RH, 1 w, listed as Polymorph A
[8] = 50° C./10% RH, 4 w, listed as Polymorph A
[9] = RT/10% RH, 1 w, listed as Polymorph A
[10] = RT/10% RH, 4 w, listed as Polymorph A

- Impurity RRT 0.62 ([1]; 35° C./10% RH, 1 w): 0.24
- Impurity RRT 0.89 ([1]; 35° C./10% RH, 1 w): <0.05
- Impurity RRT 1.06 ([1]; 35° C./10% RH, 1 w): <0.05
- Impurity RRT 1.21 ([1]; 35° C./10% RH, 1 w): <0.05
- Impurity RRT 1.25 ([1]; 35° C./10% RH, 1 w): <0.05
- Impurity RRT 0.95 [1, 5]: 1.36
- Impurity RRT 1.08 [1, 5]: 0.28
- Impurity RRT 1.17 [1, 5]: 0.16
- Sepiapterin RRT 1.00 (amount of sepiapterin) [1, 5]: 97.97%
- Impurity RRT 0.62 ([1]; 35° C./10% RH, 4 w): 1.03
- Impurity RRT 0.89 ([1]; 35° C./10% RH, 4 w): <0.05
- Impurity RRT 1.06 ([1]; 35° C./10% RH, 4 w): <0.05
- Impurity RRT 1.08 ([1]; 35° C./10% RH, 4 w): <0.05
- Impurity RRT 1.21 ([1]; 35° C./10% RH, 4 w): <0.05
- Impurity RRT 1.25 ([1]; 35° C./10% RH, 4 w): <0.05
- Impurity RRT 0.95 [1, 6]: 2.70
- Impurity RRT 1.17 [1, 6]: 0.16
- Sepiapterin RRT 1.00 (amount of sepiapterin) [1, 6]: 96.06%
- Impurity RRT 0.62 ([1]; 50° C./10% RH, 1 w): 0.68
- Impurity RRT 0.89 ([1]; 50° C./10% RH, 1 w): <0.05
- Impurity RRT 1.06 ([1]; 50° C./10% RH, 1 w): 0.45
- Impurity RRT 1.21 ([1]; 50° C./10% RH, 1 w): <0.05
- Impurity RRT 1.25 ([1]; 50° C./10% RH, 1 w): <0.05
- Impurity RRT 0.95 [1, 7]: 3.48
- Impurity RRT 1.08 [1, 7]: 0.08
- Impurity RRT 1.17 [1, 7]: 0.16
- Sepiapterin RRT 1.00 (amount of sepiapterin) [1, 7]: 95.15%
- Impurity RRT 0.62 ([1]; 50° C./10% RH, 4 w): 2.59
- Impurity RRT 0.89 ([1]; 50° C./10% RH, 4 w): 0.06
- Impurity RRT 1.06 ([1]; 50° C./10% RH, 4 w): <0.05
- Impurity RRT 1.17 ([1]; 50° C./10% RH, 4 w): 0.17
- Impurity RRT 1.21 ([1]; 50° C./10% RH, 4 w): 0.06
- Impurity RRT 1.25 ([1]; 50° C./10% RH, 4 w): 0.11
- Impurity RRT 0.95 [1, 8]: 7.67
- Impurity RRT 1.08 [1, 8]: 0.85
- Sepiapterin RRT 1.00 (amount of sepiapterin) [1, 8]: 88.49%
- Sepiapterin RRT 1.00 (amount of sepiapterin) ([1]; 50° C./10% RH, 4 w, listed as polymorph A): 88.49%
- Impurity RRT 0.89 ([1]; Initial): <0.05
- Impurity RRT 1.06 ([1]; Initial): <0.05
- Impurity RRT 1.08 ([1]; Initial): <0.05
- Impurity RRT 1.17 ([1]; Initial): 0.17
- Impurity RRT 1.21 ([1]; Initial): <0.05
- Impurity RRT 1.25 ([1]; Initial): <0.05
- Impurity RRT 0.62 ([1]; Initial, listed as Polymorph A): 0.08
- Impurity RRT 0.95 ([1]; Initial, listed as Polymorph A): 0.42
- Sepiapterin RRT 1.00 (amount of sepiapterin) ([1]; Initial, listed as Polymorph A): 99.33%
- Sepiapterin RRT 1.00 (amount of sepiapterin) ([1]; Initial, listed as polymorph A): 99.33%
- Impurity RRT 0.62 ([1]; RT/10% RH, 1 w): 0.16
- Impurity RRT 0.89 ([1]; RT/10% RH, 1 w): <0.05
- Impurity RRT 1.06 ([1]; RT/10% RH, 1 w): <0.05
- Impurity RRT 1.17 ([1]; RT/10% RH, 1 w): 0.16
- Impurity RRT 1.21 ([1]; RT/10% RH, 1 w): <0.05
- Impurity RRT 1.25 ([1]; RT/10% RH, 1 w): <0.05
- Impurity RRT 0.95 [1, 9]: 0.77
- Impurity RRT 1.08 [1, 9]: 0.11
- Sepiapterin RRT 1.00 (amount of sepiapterin) [1, 9]: 98.80%
- Impurity RRT 0.62 ([1]; RT/10% RH, 4 w): 0.37
- Impurity RRT 0.89 ([1]; RT/10% RH, 4 w): <0.05
- Impurity RRT 1.06 ([1]; RT/10% RH, 4 w): <0.05
- Impurity RRT 1.08 ([1]; RT/10% RH, 4 w): <0.05
- Impurity RRT 1.17 ([1]; RT/10% RH, 4 w): 0.16
- Impurity RRT 1.21 ([1]; RT/10% RH, 4 w): <0.05
- Impurity RRT 1.25 ([1]; RT/10% RH, 4 w): <0.05
- Impurity RRT 0.95 [1, 10]: 1.29
- Sepiapterin RRT 1.00 (amount of sepiapterin) [1, 10]: 98.18%
- physical form stability to grinding and sieving [2]: confirms the physical form stability
- % of Initial ([3]; 35° C., storage 1 week): 98.6%
- Purity (area %) ([3]; 35° C., storage 1 week): 98.0 area %
- % of Initial ([3]; 35° C., storage 4 weeks): 96.7%
- Purity (area %) ([3]; 35° C., storage 4 weeks): 96.1 area %
- % of Initial ([3]; 50° C., storage 1 week): 95.8%
- Purity (area %) ([3]; 50° C., storage 1 week): 95.2 area %
- % of Initial ([3]; 50° C., storage 4 weeks): 89.1%
- Purity (area %) ([3]; 50° C., storage 4 weeks): 88.5 area %
- % of Initial ([3]; RT, storage 1 week): 99.5%
- Purity (area %) ([3]; RT, storage 1 week): 98.8 area %
- % of Initial ([3]; RT, storage 4 weeks): 98.8%
- Purity (area %) ([3]; RT, storage 4 weeks): 98.2 area %
- purity of initial samples by HPLC ([3]; initial, before storage): 99.3 area %
- stability as determined by HPLC (in words) ([3]; storage at RT, 35° C., 50° C., 1 and 4 weeks): significantly less stability
- Form change ([4]; 35° C., storage 1 week): No
- Form change ([4]; 35° C., storage 4 weeks): No
- Form change ([4]; 50° C., storage 1 week): No
- Form change ([4]; 50° C., storage 4 weeks): No
- Form change ([4]; RT, storage 1 week): No
- Form change ([4]; RT, storage 4 weeks): No
Structure (SMILES): C[C@H](O)C(=O)C1=Nc2c(nc(N)[nH]c2=O)NC1 [Form A, sepiapterin]
